Measured values published in patent US20230295200A1 (REGENTS OF THE UNIVERSITY OF MICHIGAN, priority 2022, published 2023).

Columns and labels:
STAT6 protein = molecular target: T1, STAT6 protein (Homo sapiens, UniProt P42226); experiment: Fluorescence polarization (FP) binding assay, STAT6; settings: FP competition, 5 nM fluorescein-labeled tracer, 200 nM protein, PBS pH7.4; read-out: Binding STAT6
T1 sequence (P42226 1-847): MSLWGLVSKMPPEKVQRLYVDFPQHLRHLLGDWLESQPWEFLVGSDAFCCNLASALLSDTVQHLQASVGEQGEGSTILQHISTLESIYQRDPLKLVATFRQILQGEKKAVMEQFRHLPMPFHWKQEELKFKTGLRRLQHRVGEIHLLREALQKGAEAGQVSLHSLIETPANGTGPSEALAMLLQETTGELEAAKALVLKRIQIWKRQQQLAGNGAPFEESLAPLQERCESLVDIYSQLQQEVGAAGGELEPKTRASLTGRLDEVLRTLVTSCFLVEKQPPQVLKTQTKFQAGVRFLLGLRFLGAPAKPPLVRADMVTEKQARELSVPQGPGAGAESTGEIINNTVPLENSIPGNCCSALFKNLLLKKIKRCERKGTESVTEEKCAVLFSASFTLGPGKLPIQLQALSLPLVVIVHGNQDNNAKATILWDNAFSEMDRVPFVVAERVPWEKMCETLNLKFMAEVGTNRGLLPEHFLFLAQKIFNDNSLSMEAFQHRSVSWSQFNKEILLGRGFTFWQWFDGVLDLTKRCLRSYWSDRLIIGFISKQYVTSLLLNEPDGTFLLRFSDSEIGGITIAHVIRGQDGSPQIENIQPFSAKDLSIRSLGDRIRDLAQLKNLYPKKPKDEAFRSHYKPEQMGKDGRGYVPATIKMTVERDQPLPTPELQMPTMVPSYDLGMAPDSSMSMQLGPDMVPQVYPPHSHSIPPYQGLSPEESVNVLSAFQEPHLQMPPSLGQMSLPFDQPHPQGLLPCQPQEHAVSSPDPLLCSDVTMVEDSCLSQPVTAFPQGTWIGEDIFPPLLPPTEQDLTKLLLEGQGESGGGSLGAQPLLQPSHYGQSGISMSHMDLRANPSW
In short: (§1)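 Fluorescence polarization is read after STAT5 or STAT6 protein (200 nM) and a fluorescein-labeled tracer (5 nM) equilibrate for 1 h at room temperature in DTT-containing PBS pH 7.4 with BGG and Tween-20. Inhibition constants are obtained by nonlinear curve fitting.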

STAT5A = molecular target: T2, STAT5A (Homo sapiens, UniProt P42229); experiment: Fluorescence polarization (FP) binding assay, STAT5A; settings: FP competition, 5 nM fluorescein-labeled tracer, 200 nM protein, PBS pH7.4
T2 sequence (P42229 1-794): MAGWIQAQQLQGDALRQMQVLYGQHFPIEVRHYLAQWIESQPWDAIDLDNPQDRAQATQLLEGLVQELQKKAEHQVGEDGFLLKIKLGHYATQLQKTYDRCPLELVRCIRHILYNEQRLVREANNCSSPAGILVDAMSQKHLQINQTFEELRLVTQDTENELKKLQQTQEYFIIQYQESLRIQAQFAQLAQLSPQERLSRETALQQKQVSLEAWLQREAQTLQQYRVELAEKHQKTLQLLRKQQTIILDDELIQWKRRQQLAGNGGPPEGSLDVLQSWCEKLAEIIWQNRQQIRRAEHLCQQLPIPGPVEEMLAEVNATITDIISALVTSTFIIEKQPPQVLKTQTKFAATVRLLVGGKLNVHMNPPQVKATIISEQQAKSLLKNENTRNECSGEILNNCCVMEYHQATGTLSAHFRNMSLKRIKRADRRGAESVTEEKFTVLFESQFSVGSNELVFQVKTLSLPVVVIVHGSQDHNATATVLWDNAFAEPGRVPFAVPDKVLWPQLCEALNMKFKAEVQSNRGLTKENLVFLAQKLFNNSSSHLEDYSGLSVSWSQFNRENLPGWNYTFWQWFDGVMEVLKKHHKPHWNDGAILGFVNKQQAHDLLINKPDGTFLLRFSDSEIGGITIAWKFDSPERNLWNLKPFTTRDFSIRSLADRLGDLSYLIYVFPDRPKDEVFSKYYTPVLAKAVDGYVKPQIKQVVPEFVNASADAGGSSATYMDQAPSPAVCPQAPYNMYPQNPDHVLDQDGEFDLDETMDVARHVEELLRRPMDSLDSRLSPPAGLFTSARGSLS
In short: as §1

Ki (STAT6 protein) [nM]	Ki (STAT5A) [nM]	Compound
1000 to 10000	100 to 1000	CC(C)(C)[C@H](NC(=O)c1cc2cc(C(F)(F)P(=O)(O)O)ccc2s1)C(=O)N1CCC[C@H]1C(=O)Nc1ccc(-c2ccccc2)s1 [Compound 305, ((2-(((S)-3,3-dimethyl-1-oxo-1-((S)-2-((5-phenylthiophen-2-yl)carbamoyl)pyrrolidin-1-yl)butan-2-yl)carbamoyl)benzo[b]thiophen-5-yl)difluoromethyl)phosphonic acid]
> 10000	1000 to 10000	CC(C)(C)[C@H](NC(=O)c1cc2cc(C(F)(F)P(=O)(O)O)ccc2s1)C(=O)N1CCCCC[C@H]1C(=O)Nc1ccc(-c2ccccc2)s1 [Compound 306, ((2-(((S)-3,3-dimethyl-1-oxo-1-((S)-2-((5-phenylthiophen-2-yl)carbamoyl)azepan-1-yl)butan-2-yl)carbamoyl)benzo[b]thiophen-5-yl)difluoromethyl)phosphonic acid]
100 to 1000	1000 to 10000	CCO[C@@H]1CCN(C(=O)[C@@H](NC(=O)c2cc3cc(C(F)(F)P(=O)(O)O)ccc3s2)C(C)(C)C)[C@@H]1C(=O)N1CCO[C@H](c2ccccc2)C1 [Compound 307, ((2-(((S)-1-((2S,3R)-3-ethoxy-2-((R)-2-phenylmorpholine-4-carbonyl)pyrrolidin-1-yl)-3,3-dimethyl-1-oxobutan-2-yl)carbamoyl)benzo[b]thiophen-5-yl)difluoromethyl)phosphonic acid]
1000 to 10000	1000 to 10000	CCO[C@H]1CCN(C(=O)[C@@H](NC(=O)c2cc3cc(C(F)(F)P(=O)(O)O)ccc3s2)C(C)(C)C)[C@@H]1C(=O)N1CCO[C@H](c2ccccc2)C1 [Compound 308, ((2-(((S)-1-((2S,3S)-3-ethoxy-2-((R)-2-phenylmorpholine-4-carbonyl)pyrrolidin-1-yl)-3,3-dimethyl-1-oxobutan-2-yl)carbamoyl)benzo[b]thiophen-5-yl)difluoromethyl)phosphonic acid]
100 to 1000	1000 to 10000	CN(C)C(=O)CCN(C(=O)[C@@H]1CCCN1C(=O)[C@@H](NC(=O)c1cc2cc(C(F)(F)P(=O)(O)O)ccc2s1)C(C)(C)C)c1ccc(-c2nccs2)cc1 [Compound 309, ((2-(((S)-1-((S)-2-((3-(dimethylamino)-3-oxopropyl)(4-(thiazol-2-yl)phenyl)carbamoyl)pyrrolidin-1-yl)-3,3-dimethyl-1-oxobutan-2-yl)carbamoyl)benzo[b]thiophen-5-yl)difluoromethyl)phosphonic acid]
100 to 1000	1000 to 10000	CN(C)C(=O)CCN(C(=O)[C@@H]1CCCN1C(=O)[C@@H](NC(=O)c1cc2cc(C(F)(F)P(=O)(O)O)ccc2s1)C(C)(C)C)c1ccc2ccccc2c1 [Compound 317, ((2-(((S)-1-((S)-2-((3-(dimethylamino)-3-oxopropyl)(naphthalen-2-yl)carbamoyl)pyrrolidin-1-yl)-3,3-dimethyl-1-oxobutan-2-yl)carbamoyl)benzo[b]thiophen-5-yl)difluoromethyl)phosphonic acid]
1000 to 10000	1000 to 10000	CN(C)C(=O)CCN(C(=O)[C@@H]1CCCN1C(=O)[C@@H](NC(=O)c1cc2cc(C(F)(F)P(=O)(O)O)ccc2s1)C(C)(C)C)c1ccc(-c2ccccc2)cc1 [Compound 318]
1000 to 10000	> 10000	CN(C)C(=O)CCN(C(=O)[C@@H]1CCCN1C(=O)[C@@H](NC(=O)c1cc2cc(C(F)(F)P(=O)(O)O)ccc2s1)C(C)(C)C)c1cccc(-c2nccs2)c1 [Compound 320, ((2-(((S)-1-((S)-2-((3-(dimethylamino)-3-oxopropyl)(3-(thiazol-2-yl)phenyl)carbamoyl)pyrrolidin-1-yl)-3,3-dimethyl-1-oxobutan-2-yl)carbamoyl)benzo[b]thiophen-5-yl)difluoromethyl)phosphonic acid]
